Key:
[1] = tested on: CC(O)C(=O)O; assay: cells, lysate or membranes
[2] = biological target: MCT1 (monocarboxylate transporter 1) (Rattus norvegicus, UniProt P53987); assay: inhibition of L-[…]lactate uptake in Xenopus oocytes; format: cell-based; details: read-out: Inhibitor-insensitive component (%)
[3] = biological target: T1, MCT2 (monocarboxylate transporter 2) (Rattus norvegicus, UniProt Q63344); assay: as above; format: cell-based; details: read-out: % inhibition at 10 nM
T1 sequence (Q63344 1-489): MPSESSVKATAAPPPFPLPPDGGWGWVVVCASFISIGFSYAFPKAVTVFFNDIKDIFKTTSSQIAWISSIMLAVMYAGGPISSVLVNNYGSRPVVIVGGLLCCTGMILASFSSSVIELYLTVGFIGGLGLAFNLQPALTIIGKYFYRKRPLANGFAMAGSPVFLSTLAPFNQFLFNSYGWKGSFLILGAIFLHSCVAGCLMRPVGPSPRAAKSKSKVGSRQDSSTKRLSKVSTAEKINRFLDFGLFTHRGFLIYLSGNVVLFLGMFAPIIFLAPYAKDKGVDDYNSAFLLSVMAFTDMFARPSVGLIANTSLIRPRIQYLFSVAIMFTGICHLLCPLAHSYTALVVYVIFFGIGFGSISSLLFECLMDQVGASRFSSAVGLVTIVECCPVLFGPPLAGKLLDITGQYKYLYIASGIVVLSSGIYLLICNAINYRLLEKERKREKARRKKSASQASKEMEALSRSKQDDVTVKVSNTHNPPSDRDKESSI

MCT1 (monocarboxylate transporter 1), sequence (P53987 whole entry): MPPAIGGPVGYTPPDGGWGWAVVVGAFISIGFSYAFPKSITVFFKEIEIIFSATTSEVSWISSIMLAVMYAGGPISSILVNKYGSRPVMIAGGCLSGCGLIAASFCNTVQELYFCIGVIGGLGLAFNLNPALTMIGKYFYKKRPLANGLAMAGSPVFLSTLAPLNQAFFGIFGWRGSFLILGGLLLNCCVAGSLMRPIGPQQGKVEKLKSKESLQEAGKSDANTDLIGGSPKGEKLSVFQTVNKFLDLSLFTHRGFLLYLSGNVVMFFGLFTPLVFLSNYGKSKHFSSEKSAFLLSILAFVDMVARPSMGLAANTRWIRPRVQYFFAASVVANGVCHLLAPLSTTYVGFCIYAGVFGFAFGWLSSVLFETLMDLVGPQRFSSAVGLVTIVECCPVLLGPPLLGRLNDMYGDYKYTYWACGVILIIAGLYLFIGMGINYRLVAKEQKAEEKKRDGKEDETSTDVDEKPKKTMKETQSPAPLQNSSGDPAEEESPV

activity at 0.1 µM [2] [%] | inhibition at 0.01 µM [3] [%] | Compound | Km [1] [mM]
 |  | MCT1 (monocarboxylate transporter 1) (Rattus norvegicus) | 4.4 ± 1.5
1.9 ± 0.6 | ~70 | Cc1n[nH]c(C)c1Cc1sc2c(c1C(=O)N1C[C@H](O)CO1)c(=O)n(C)c(=O)n2CC(C)C [AR-C155858] | 

Reference: paper PMC2947196 (2010)
